Patent US12428406B2 (PMV Pharmaceuticals, Inc., priority 2019, dated 2025)

What follows are compounds tested against T1, p53 Y220C (Homo sapiens, UniProt P04637, Y220C) (assay: In vitro DNA binding activity assay (HTRF / TR-FRET): stabilization of p53 Y220C and increase of its DNA binding activity). Details: recombinant His-tagged p53 Y220C DNA binding domain (aa 94-312), biotin-labeled consensus DNA, incubated at 27° C. or 29° C. for 60 min.
T1 construct: The recombinant protein was a truncation mutant containing only amino acids 94-312 of p53; made in house; host or cells: E. coli
T1 sequence (P04637 94-312, change not shown): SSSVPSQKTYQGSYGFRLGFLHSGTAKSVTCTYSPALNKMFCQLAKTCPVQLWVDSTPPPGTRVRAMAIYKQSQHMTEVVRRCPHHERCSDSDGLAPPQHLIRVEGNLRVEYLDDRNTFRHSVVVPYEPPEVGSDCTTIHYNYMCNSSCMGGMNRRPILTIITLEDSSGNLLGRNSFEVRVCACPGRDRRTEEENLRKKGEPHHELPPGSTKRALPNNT
Format: biochemical
Outline: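 Compounds from 4.5 mM DMSO stocks, 3-fold serial dilutions; room-temperature incubations of 15 and 20 min. SC150 = concentration raising DNA binding by 50% over no-compound control.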

| Structure (SMILES) | SC150 (concentration of the compound required to increase the DNA binding activity by 50%) |
| --- | --- |
| COc1cc(S(N)(=O)=O)ccc1NCC#Cc1cc2c(NC3CCC(=O)CC3)cccc2n1CC(F)(F)F [Compound 65A, 3-methoxy-4-[(3-{4-[(4-oxocyclohexyl)amino]-1-(2,2,2-trifluoroethyl)-1H-indol-2-yl}prop-2-yn-1-yl)amino]benzene-1-sulfonamide] | + (+ = 0 μM ≤ SC150 < 0.05 μM) |
| CS(=O)(=O)c1ccc(NCC#Cc2cc3c(N[C@H]4CC[C@H](N5CC6(COC6)C5)CC4)cccc3n2CC(F)(F)F)c(OC(F)(F)F)c1 [Compound 285A, 2-(3-{[4-methanesulfonyl-2-(trifluoromethoxy)phenyl]amino}prop-1-yn-1-yl)-N-[(1R,4R)-4-{2-oxa-6-azaspiro[3.3]heptan-6-yl}cyclohexyl]-1-(2,2,2-trifluoroethyl)-1H-indol-4-amine] | + (+ = 0 μM ≤ SC150 < 0.05 μM) |
| COCC(O)CN1CCC(Nc2cccc3c2cc(C#CCNc2ccc(S(=O)(=O)C(C)C)cc2OC)n3CC(F)(F)F)CC1 (stereo not shown) [Compound 694A, 1-methoxy-3-(4-{[2-(3-{[2-methoxy-4-(propane-2-sulfonyl)phenyl]amino}prop-1-yn-1-yl)-1-(2,2,2-trifluoroethyl)-1H-indol-4-yl]amino}piperidin-1-yl)propan-2-ol] | + (+ = 0 μM ≤ SC150 < 0.05 μM) |
| CS(=O)(=O)c1ccc(NCC#Cc2cc3c(N[C@H]4CC[C@@H](N5CC6(COC6)C5)CC4)cccc3n2CC(F)(F)F)c(OCCO)c1 [Compound 226A, 2-(5-methanesulfonyl-2-{[3-(4-{[(1S,4S)-4-{2-oxa-6-azaspiro[3.3]heptan-6-yl}cyclo-hexyl]amino}-1-(2,2,2-trifluoroethyl)-1H-indol-2-yl)prop-2-yn-1-yl]amino}phenoxy)ethan-1-ol] | + (+ = 0 μM ≤ SC150 < 0.05 μM) |
| COc1cc(S(N)(=O)=O)ccc1NCC#Cc1cc2c(N[C@@H]3CCO[C@@H](C)C3)cccc2n1CC(F)(F)F [Compound 1018A, 3-methoxy-4-{[3-(4-{[(2S,4R)-2-methyloxan-4-yl]amino}-1-(2,2,2-trifluoroethyl)-1H-indol-2-yl)prop-2-yn-1-yl]amino}benzene-1-sulfonamide] | + (+ = 0 μM ≤ SC150 < 0.05 μM) |
| COc1cc(S(C)(=O)=O)ccc1NCC#Cc1cc2c(NC3CCN([C@@H]4CCOC4)CC3)cccc2n1CC(F)(F)F [Compound 722A, 2-{3-[(4-methanesulfonyl-2-methoxyphenyl)amino]prop-1-yn-1-yl}-N-{1-[(3R)-oxolan-3-yl]piperidin-4-yl}-1-(2,2,2-trifluoroethyl)-1H-indol-4-amine] | + (+ = 0 μM ≤ SC150 < 0.05 μM) |
| COc1cc(C(=O)N(C)C)ccc1NCC#Cc1cc2c(N[C@H]3CCN(C)C[C@H]3F)cccc2n1CC(F)(F)F (racemic) [Compound 815A, rac-4-{[3-(4-{[(3R,4S)-3-fluoro-1-methylpiperidin-4-yl]amino}-1-(2,2,2-trifluoroethyl)-1H-indol-2-yl)prop-2-yn-1-yl]amino}-3-methoxy-N,N-dimethylbenzamide] | + (+ = 0 μM ≤ SC150 < 0.05 μM) |
| CCOc1cc(S(C)(=O)=O)ccc1NCC#Cc1cc2c(N[C@H]3CC[C@H](N4CC5CC(C4)O5)CC3)cccc2n1CC(F)(F)F [Compound 404A, 2-{3-[(2-ethoxy-4-methanesulfonyl-phenyl)amino]prop-1-yn-1-yl}-N-[(1R,4R)-4-{6-oxa-3-azabicyclo[3.1.1]heptan-3-yl}cyclohexyl]-1-(2,2,2-trifluoroethyl)-1H-indol-4-amine] | + (+ = 0 μM ≤ SC150 < 0.05 μM) |
| CN(C)[C@H]1CC[C@H](Nc2cccc3c2cc(C#CCOc2ccc(S(C)(=O)=O)cc2N)n3CC(F)(F)F)CC1 [Compound 100A, (1R,4R)-N^4-{2-[3-(2-amino-4-methane-sulfonylphenoxy)prop-1-yn-1-yl]-1-(2,2,2-trifluoroethyl)-1H-indol-4-yl}-N^1,N^1-dimethylcyclohexane-1,4-diamine] | + (+ = 0 μM ≤ SC150 < 0.05 μM) |
| COc1cc(S(N)(=O)=O)ccc1NCC#Cc1cc2c(NC3CCN(C(C)C)CC3)cccc2n1CC(F)(F)F [Compound 543A, 3-methoxy-4-{[3-(4-{[1-(propan-2-yl)piperidin-4-yl]amino}-1-(2,2,2-trifluoroethyl)-1H-indol-2-yl)prop-2-yn-1-yl]amino}benzene-1-sulfonamide] | + (+ = 0 μM ≤ SC150 < 0.05 μM) |
| COc1cc(S(C)(=O)=O)ccc1NCC#Cc1cc2c(NC3CCN(C(=O)C(C)C)CC3)cccc2n1CC(F)(F)F [Compound 752A] | + (+ = 0 μM ≤ SC150 < 0.05 μM) |
| COc1cc(C(=O)N[C@@H](CCC(=O)O)C(=O)O)ccc1NCC#Cc1cc2c(N[C@@H]3CCN(C)C[C@@H]3F)cccc2n1CC(F)(F)F [Compound 929A, (2S)-2-[(4-{[3-(4-{[(3S,4R)-3-fluoro-1-methylpiperidin-4-yl]amino}-1-(2,2,2-trifluoroethyl)-1H-indol-2-yl)prop-2-yn-1-yl]amino}-3-methoxyphenyl)formamido]pentanedioic acid] | + (+ = 0 μM ≤ SC150 < 0.05 μM) |
| CCNC(=O)c1ccc(NCC#Cc2cc3c(N[C@@H]4CCN(C)C[C@@H]4F)cccc3n2CC(F)(F)F)c(OC)c1 [Compound 940A, N-ethyl-4-{[3-(4-{[(3S,4R)-3-fluoro-1-methylpiperidin-4-yl]amino}-1-(2,2,2-trifluoroethyl)-1H-indol-2-yl)prop-2-yn-1-yl]amino}-3-methoxybenzamide] | + (+ = 0 μM ≤ SC150 < 0.05 μM) |
| CS(=O)(=O)c1ccc(NCC#Cc2cc3c(N[C@H]4CC[C@H](N5CC6(COC6)C5)CC4)cccc3n2CC(F)(F)F)c(OCC#N)c1 [Compound 222A, 2-(5-methanesulfonyl-2-{[3-(4-{[(1R,4R)-4-{2-oxa-6-azaspiro[3.3]heptan-6-yl}cyclo-hexyl]amino}-1-(2,2,2-trifluoroethyl)-1H-indol-2-yl)prop-2-yn-1-yl]amino}phenoxy) acetonitrile] | + (+ = 0 μM ≤ SC150 < 0.05 μM) |
| COc1cc(C#N)ccc1NCC#Cc1cc2c(NC3CCC(N4CC5(COC5)C4)CC3)cccc2n1CC(F)(F)F [Compound 250A, 3-methoxy-4-{[3-(4-{[(1S,4S)-4-{2-oxa-6-azaspiro[3.3]heptan-6-yl}cyclohexyl]amino}-1-(2,2,2-trifluoroethyl)-1H-indol-2-yl)prop-2-yn-1-yl]amino}benzonitrile] | + (+ = 0 μM ≤ SC150 < 0.05 μM) |
| CCOc1cc(S(C)(=O)=O)ccc1NCC#Cc1cc2c(N[C@H]3CC[C@@H](N4CC5(COC5)C4)CC3)cccc2n1CC(F)(F)F [Compound 235A, 2-{3-[(2-ethoxy-4-methanesulfonyl-phenyl)amino]prop-1-yn-1-yl}-N-[(1S,4S)-4-{2-oxa-6-azaspiro[3.3]heptan-6-yl}cyclo-hexyl]-1-(2,2,2-trifluoroethyl)-1H-indol-4-amine] | + (+ = 0 μM ≤ SC150 < 0.05 μM) |
| CCOC(=O)c1ccc(NCC#Cc2cc3c(N[C@@H]4CCN(C)C[C@@H]4F)cccc3n2CC(F)(F)F)c(OC)c1 [Compound 839A, Ethyl 4-((3-(4-(((3S,4R)-3-fluoro-1-methylpiperidin-4-yl)amino)-1-(2,2,2-trifluoroethyl)-1H-indol-2-yl)prop-2-yn-1-yl)amino)-3-methoxybenzoate] | + (+ = 0 μM ≤ SC150 < 0.05 μM) |
| COCC(O)CN1CCC(Nc2cccc3c2cc(C#CCNc2ccc(S(C)(=O)=O)cc2OCF)n3CC(F)(F)F)CC1 (stereo not shown) [Compound 664A, 1-(4-{[2-(3-{[2-(fluoromethoxy)-4-methanesulfonylphenyl]amino}prop-1-yn-1-yl)-1-(2,2,2-trifluoroethyl)-1H-indol-4-yl]amino}piperidin-1-yl)-3-methoxypropan-2-ol] | + (+ = 0 μM ≤ SC150 < 0.05 μM) |
| COc1cc(S(N)(=O)=O)ccc1NCC#Cc1cc2c(NCC(N)=O)cccc2n1CC(F)(F)F [Compound 3A, 2-[(2-{3-[(2-methoxy-4-sulfamoylphenyl)amino]prop-1-yn-1-yl}-1-(2,2,2-trifluoroethyl)-1H-indol-4-yl)amino]acetamide] | ++++ (++++ = 0.2 μM ≤ SC150 < 1 μM) |
| COc1cc(C(=O)N[C@@H](CCC(N)=O)C(=O)O)ccc1NCC#Cc1cc2c(N[C@@H]3CCN(C)C[C@@H]3F)cccc2n1CC(F)(F)F [Compound 930A, (2S)-4-carbamoyl-2-[(4-{[3-(4-{[(3S,4R)-3-fluoro-1-methylpiperidin-4-yl]amino}-1-(2,2,2-trifluoroethyl)-1H-indol-2-yl)prop-2-yn-1-yl]amino}-3-methoxyphenyl)formamido]butanoic acid] | + (+ = 0 μM ≤ SC150 < 0.05 μM) |
| COc1cc(S(=O)(=O)N(CCO)CCO)ccc1NCC#Cc1cc2c(NC3CCOCC3)cccc2n1CC(F)(F)F [Compound 1007A, N,N-bis(2-hydroxyethyl)-3-methoxy-4-[(3-{4-[(oxan-4-yl)amino]-1-(2,2,2-trifluoroethyl)-1H-indol-2-yl}prop-2-yn-1-yl)amino]benzene-1-sulfonamide] | + (+ = 0 μM ≤ SC150 < 0.05 μM) |
| COc1cc(C(=O)O)ccc1NCC#Cc1cc2c(N[C@@H]3CCN(C)C[C@@H]3F)cccc2n1CC(F)(F)F [Compound 781A, 4-{[3-(4-{[(3S,4R)-3-fluoro-1-methylpiperidin-4-yl]amino}-1-(2,2,2-trifluoroethyl)-1H-indol-2-yl)prop-2-yn-1-yl]amino}-3-methoxybenzoic acid] | + (+ = 0 μM ≤ SC150 < 0.05 μM) |
